Literature values as cited in US20140107523A1, “MODEL FOR TRAUMATIC BRAIN INJURY” (University of Rochester, priority 2012, published 2014).

System: NMDA receptor
Settings: rats treated with the NMDA receptor blocker; spatial learning

For N[C@@H](CCCP(=O)(O)O)C(=O)O [APV], the “performance in the Morris water maze” value is given as “perform poorly”.
